The target of experiment [1] is human TLR8 (Homo sapiens (Human), UniProt Q9NR97). The experiment is described as follows: TLR8 inhibition reporter assay (HEK-Blue cells, SEAP reporter, R848 stimulation).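 Also: compounds tested from 0.05 nM to 50 µM, 22 h at 37 °C, SEAP measured with HEK-Blue Detection, inhibition relative to agonist plus DMSO versus a known inhibitor.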 In general terms: Reporter assays use an easily measured gene product as a stand-in for the process of interest.
Experiment [2] deals with human TLR9 (Homo sapiens (Human), UniProt Q9NR96). The experiment is described as follows: TLR9 inhibition reporter assay (HEK-Blue cells, SEAP reporter, ODN2006 stimulation).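 Also: compounds tested over 0.05 nM to 50 µM, 22 h incubation, inhibition taken as SEAP signal drop from agonist plus DMSO wells toward a known inhibitor control.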
The target in experiment [3] is human TLR7 (Homo sapiens (Human), UniProt Q9NYK1). The experiment is described as follows: TLR7 inhibition reporter assay (HEK-Blue cells, SEAP reporter, gardiquimod stimulation). Type of experiment: cell-based.
The mark [4] stands for this setting: read-out: TLR8 IC50, HEK-Blue cells overexpressing human TLR8, R848 15.9 μM.
[5] abbreviates: read-out: TLR9 IC50, HEK-Blue cells overexpressing human TLR9, ODN2006 5 nM.
[6] abbreviates: HEK-Blue cells overexpressing human TLR7, gardiquimod 7.5 μM.

Structures are written as SMILES. Like-named read-outs stand apart in the source and are kept apart here.

Sequence of human TLR7 (Q9NYK1 27-1049): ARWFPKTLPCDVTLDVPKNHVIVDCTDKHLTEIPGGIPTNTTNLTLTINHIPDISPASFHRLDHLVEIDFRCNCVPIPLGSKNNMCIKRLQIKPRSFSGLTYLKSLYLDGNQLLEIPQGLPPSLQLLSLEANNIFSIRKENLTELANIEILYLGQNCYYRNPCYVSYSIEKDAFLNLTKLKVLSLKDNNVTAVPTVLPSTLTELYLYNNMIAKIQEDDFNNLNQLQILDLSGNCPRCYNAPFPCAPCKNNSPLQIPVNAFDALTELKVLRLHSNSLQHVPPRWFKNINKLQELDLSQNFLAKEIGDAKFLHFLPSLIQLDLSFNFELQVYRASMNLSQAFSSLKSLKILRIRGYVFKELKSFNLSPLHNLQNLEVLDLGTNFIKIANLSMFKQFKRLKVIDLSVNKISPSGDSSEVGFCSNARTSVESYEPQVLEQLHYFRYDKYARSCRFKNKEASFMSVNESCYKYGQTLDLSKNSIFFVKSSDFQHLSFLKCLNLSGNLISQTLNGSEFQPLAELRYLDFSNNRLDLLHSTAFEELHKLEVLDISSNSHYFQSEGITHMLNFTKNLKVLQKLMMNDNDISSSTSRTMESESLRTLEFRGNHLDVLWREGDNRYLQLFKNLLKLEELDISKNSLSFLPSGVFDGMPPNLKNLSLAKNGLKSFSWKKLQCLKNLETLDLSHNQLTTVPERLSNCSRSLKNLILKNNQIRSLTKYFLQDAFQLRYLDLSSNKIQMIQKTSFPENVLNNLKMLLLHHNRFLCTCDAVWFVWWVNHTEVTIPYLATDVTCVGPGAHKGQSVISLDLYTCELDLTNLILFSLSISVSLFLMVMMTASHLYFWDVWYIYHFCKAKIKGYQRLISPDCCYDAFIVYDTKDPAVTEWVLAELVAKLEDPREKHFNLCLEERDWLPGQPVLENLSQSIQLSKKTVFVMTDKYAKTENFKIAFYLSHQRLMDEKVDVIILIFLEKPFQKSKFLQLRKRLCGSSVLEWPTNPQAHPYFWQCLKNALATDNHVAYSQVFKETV
Sequence of human TLR9 (Q9NR96 26-1032): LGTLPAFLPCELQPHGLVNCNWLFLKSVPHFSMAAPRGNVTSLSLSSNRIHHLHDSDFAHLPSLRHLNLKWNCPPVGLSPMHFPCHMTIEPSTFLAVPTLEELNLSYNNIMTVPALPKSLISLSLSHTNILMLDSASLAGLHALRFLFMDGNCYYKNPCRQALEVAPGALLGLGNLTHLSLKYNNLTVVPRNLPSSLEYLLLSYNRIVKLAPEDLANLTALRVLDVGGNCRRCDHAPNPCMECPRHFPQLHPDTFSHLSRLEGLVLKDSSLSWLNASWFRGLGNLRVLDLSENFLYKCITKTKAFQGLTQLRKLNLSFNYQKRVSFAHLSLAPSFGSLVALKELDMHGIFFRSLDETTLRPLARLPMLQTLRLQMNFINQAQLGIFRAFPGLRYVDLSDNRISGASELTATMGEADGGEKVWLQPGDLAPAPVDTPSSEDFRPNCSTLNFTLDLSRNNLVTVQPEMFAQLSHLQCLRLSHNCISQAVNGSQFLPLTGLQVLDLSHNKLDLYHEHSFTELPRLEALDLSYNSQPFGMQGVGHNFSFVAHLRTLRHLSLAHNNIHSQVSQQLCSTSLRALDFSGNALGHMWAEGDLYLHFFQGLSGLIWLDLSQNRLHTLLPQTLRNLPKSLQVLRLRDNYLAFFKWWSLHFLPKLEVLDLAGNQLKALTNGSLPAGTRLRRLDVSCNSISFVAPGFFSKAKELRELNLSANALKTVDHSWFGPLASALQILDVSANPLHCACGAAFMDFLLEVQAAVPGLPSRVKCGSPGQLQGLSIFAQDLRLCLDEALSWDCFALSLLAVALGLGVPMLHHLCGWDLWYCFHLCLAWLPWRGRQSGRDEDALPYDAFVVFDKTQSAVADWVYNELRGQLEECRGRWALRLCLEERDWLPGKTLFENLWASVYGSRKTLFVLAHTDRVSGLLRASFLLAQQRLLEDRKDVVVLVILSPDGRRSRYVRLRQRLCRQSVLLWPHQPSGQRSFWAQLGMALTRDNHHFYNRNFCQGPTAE
Sequence of human TLR8 (Q9NR97 27-1041): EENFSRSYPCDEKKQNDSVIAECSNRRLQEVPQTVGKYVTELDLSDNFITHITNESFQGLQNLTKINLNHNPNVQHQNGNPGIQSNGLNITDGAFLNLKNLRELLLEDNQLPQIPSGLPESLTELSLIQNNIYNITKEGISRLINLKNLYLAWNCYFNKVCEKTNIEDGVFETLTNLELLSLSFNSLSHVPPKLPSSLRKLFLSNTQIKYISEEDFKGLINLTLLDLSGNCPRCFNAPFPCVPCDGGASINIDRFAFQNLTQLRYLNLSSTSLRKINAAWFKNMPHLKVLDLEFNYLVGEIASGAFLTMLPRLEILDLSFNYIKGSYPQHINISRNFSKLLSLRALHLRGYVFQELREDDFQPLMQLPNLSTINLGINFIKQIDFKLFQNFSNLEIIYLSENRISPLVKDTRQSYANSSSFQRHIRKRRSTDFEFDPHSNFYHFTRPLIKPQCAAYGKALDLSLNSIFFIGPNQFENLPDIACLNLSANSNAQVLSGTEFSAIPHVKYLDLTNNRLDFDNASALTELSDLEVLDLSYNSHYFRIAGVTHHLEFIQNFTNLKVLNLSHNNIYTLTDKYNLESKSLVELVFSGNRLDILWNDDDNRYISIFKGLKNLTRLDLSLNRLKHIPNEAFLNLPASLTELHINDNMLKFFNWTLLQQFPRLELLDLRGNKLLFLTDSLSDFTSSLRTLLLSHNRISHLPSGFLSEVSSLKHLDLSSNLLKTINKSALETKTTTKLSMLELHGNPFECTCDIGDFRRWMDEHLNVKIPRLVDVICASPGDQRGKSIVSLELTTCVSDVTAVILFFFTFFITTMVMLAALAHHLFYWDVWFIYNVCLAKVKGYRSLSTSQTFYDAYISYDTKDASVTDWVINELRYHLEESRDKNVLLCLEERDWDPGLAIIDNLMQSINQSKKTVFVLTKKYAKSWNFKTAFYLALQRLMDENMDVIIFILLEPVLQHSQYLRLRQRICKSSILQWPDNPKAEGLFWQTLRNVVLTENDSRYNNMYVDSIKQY

As a reminder, the IC50 is the midpoint of a concentration-inhibition curve. Take `CCc1c(-c2ccnc(C)c2)[nH]c2ccc(C3CCN(C(=O)CCC4CCNCC4)CC3)cc12` [Example 632, 1-(4-(3-ethyl-2-(2-methylpyridin-4-yl)-1H-indol-5-yl)piperidin-1-yl)-3-(piperidin-4-yl)propan-1-one]: the figures for the IC50 in experiment [1] (setting [4]), in experiment [2] (setting [5]) and in experiment [3] (setting [6]) were 35.8 nM, 795 nM and 91.8 nM, respectively.

For the compound `Cc1cc(-c2[nH]c3ccc(C4CCN(CCO)CC4)cc3c2C(C)C)c(F)cn1` [Example 647, 2-(4-(2-(5-fluoro-2-methylpyridin-4-yl)-3-isopropyl-1H-indol-5-yl)piperidin-1-yl)ethan-1-ol], the IC50 in experiment [1] (setting [4]) was 2.3 nM; in experiment [2] (setting [5]), 2660 nM; in experiment [3] (setting [6]), 3.9 nM.

As for `CCc1c(-c2ccnc(C)c2)[nH]c2ccc(C3CCN(C(=O)NC4CCNCC4)CC3)cc12` [Example 845, 4-(3-ethyl-2-(2-methylpyridin-4-yl)-1H-indol-5-yl)-N-(piperidin-4-yl)piperidine-1-carboxamide], the IC50 in experiment [1] (read-out: TLR8 IC50, HEK-Blue cells, R848 15.9 μM) was determined as 92.9 nM; in experiment [2] (read-out: TLR9 IC50, HEK-Blue cells, ODN2006 5 nM), 1170 nM; in experiment [3] (HEK-Blue cells, gardiquimod 7.5 μM), 148 nM.

Take `COCCNCC(=O)N1CCC(c2ccc3[nH]c(-c4cc(C)nc(C)c4)c(C(C)C)c3c2)CC1` [Example 346, 1-(4-(2-(2,6-dimethylpyridin-4-yl)-3-isopropyl-1H-indol-5-yl)piperidin-1-yl)-2-((2-methoxyethyl)amino)ethan-1-one]: the IC50 in experiment [1] (setting [4]) stood at 16.7 nM; in experiment [2] (setting [5]), 1110 nM; in experiment [3] (setting [6]) it was 4.3 nM.

For the compound `Cc1cc(-c2[nH]c3ccc(C4CCN(C(=O)CN(CCO)Cc5ccc(F)cc5)CC4)cc3c2C(C)C)cc(C)n1` [Example 407, 1-(4-(2-(2,6-dimethylpyridin-4-yl)-3-isopropyl-1H-indol-5-yl)piperidin-1-yl)-2-((4-fluorobenzyl)(2-hydroxyethyl)amino)ethan-1-one], the IC50 in experiment [1] (setting [4]) was determined as 71 nM; in experiment [2] (setting [5]), 495 nM; in experiment [3] (setting [6]), 7 nM.

As to `Cc1cc(-c2[nH]c3ccc(C4CCN(C(=O)Cn5ncnn5)CC4)cc3c2C(C)C)cc(C)n1` [Example 155, 1-(4-(2-(2,6-dimethylpyridin-4-yl)-3-isopropyl-1H-indol-5-yl)piperidin-1-yl)-2-(2H-tetrazol-2-yl) ethan-1-one], the half-maximal inhibitory concentration (IC50) worked out at 31.7 nM in experiment [1] (setting [4]), 26000 nM in experiment [2] (setting [5]) and 2.7 nM in experiment [3] (setting [6]).

In the case of `CC(=O)N1CCC(c2ccc3[nH]c(-c4cc(C)nc(F)c4)c(C(C)C)c3c2)CC1` [Example 499, 1-(4-(2-(2-fluoro-6-methylpyridin-4-yl)-3-isopropyl-1H-indol-5-yl)piperidin-1-yl)ethan-1-one], the values for the IC50 in experiment [1] (setting [4]), in experiment [2] (setting [5]) and in experiment [3] (setting [6]) were 10700 nM, above 50000 nM and 3690 nM, respectively.

Take `Cc1cnc(F)cc1-c1[nH]c2ccc(C3CCNCC3)cc2c1C(C)C` [Example 28, 2-(2-fluoro-5-methylpyridin-4-yl)-3-isopropyl-5-(piperidin-4-yl)-1H-indole]: the IC50 came to 33.9 nM in experiment [1] (setting [4]), 3430 nM in experiment [2] (setting [5]) and 7.2 nM in experiment [3] (setting [6]).

Regarding `Cc1cc(-c2[nH]c3ccc(C4CCN(CC(O)C(F)(F)F)CC4)cc3c2C(C)C)cc(C)n1` (stereo not drawn) [Example 313, 3-(4-(2-(2,6-dimethylpyridin-4-yl)-3-isopropyl-1H-indol-5-yl)piperidin-1-yl)-1,1,1-trifluoropropan-2-ol], the IC50 in experiment [1] (setting [4]) turned out to be 6.3 nM; in experiment [2] (setting [5]), 8060 nM; in experiment [3] (setting [6]), 39.9 nM.

As to `Cc1cc(-c2[nH]c3ccc(C4CCN(C5CCCOC5)CC4)cc3c2C(C)C)cc(C)n1` (stereo not drawn) [Example 457, 2-(2,6-dimethylpyridin-4-yl)-3-isopropyl-5-(1-(tetrahydro-2H-pyran-3-yl)piperidin-4-yl)-1H-indole], the IC50 in experiment [1] (setting [4]) amounted to 8.7 nM; in experiment [2] (setting [5]) it was 274 nM; in experiment [3] (setting [6]), 2.7 nM.

Turning to `Cc1cc(-c2[nH]c3ccc(C4CCN(CC(=O)NCCC(C)(C)C)CC4)cc3c2C(C)C)cc(C)n1` [Example 236, N-(3,3-dimethylbutyl)-2-(4-(2-(2,6-dimethylpyridin-4-yl)-3-isopropyl-1H-indol-5-yl)piperidin-1-yl)acetamide], the IC50 in experiment [1] (setting [4]) turned out to be 67.2 nM; in experiment [2] (setting [5]), 2090 nM; in experiment [3] (setting [6]), 46.5 nM.

As for `Cc1cc(-c2[nH]c3ccc(C4CCN(C5CCCC5)CC4)cc3c2C(C)C)cc(C)n1` [Example 326, 5-(1-cyclopentylpiperidin-4-yl)-2-(2,6-dimethylpyridin-4-yl)-3-isopropyl-1H-indole], the IC50 in experiment [1] (setting [4]) worked out at 29.2 nM; in experiment [2] (setting [5]) it was 1120 nM; in experiment [3] (setting [6]), 16.1 nM.

With `CC(=O)N1CCC(c2ccc3[nH]c(-c4cc(C)ncc4C)c(C(C)C)c3c2)CC1` [Example 584, 1-(4-(2-(2,5-dimethylpyridin-4-yl)-3-isopropyl-1H-indol-5-yl)piperidin-1-yl)ethan-1-one], the IC50 was 45.9 nM in experiment [1] (setting [4]), above 50000 nM in experiment [2] (setting [5]) and 43 nM in experiment [3] (setting [6]).

With `Cc1cc(-c2[nH]c3ccc(C4CCN(CC(=O)NC5CCC5)CC4)cc3c2C(C)C)cc(C)n1` [Example 213, N-cyclobutyl-2-(4-(2-(2,6-dimethylpyridin-4-yl)-3-isopropyl-1H-indol-5-yl)piperidin-1-yl) acetamide], the IC50 in experiment [1] (setting [4]) turned out to be 13.8 nM; in experiment [2] (setting [5]) it was 331 nM; in experiment [3] (setting [6]), 7.1 nM.

Consider `Cc1cc(-c2[nH]c3ccc(C4CCN(C(=O)C5CCN(Cc6ccccc6)C5)CC4)cc3c2C(C)C)ccn1` (stereo not drawn) [Example 575, (1-benzylpyrrolidin-3-yl)(4-(3-isopropyl-2-(2-methylpyridin-4-yl)-1H-indol-5-yl)piperidin-1-yl)methanone], for which the IC50 in experiment [1] (setting [4]) is 18.5 nM; in experiment [2] (setting [5]), 1060 nM; in experiment [3] (setting [6]) it was 34 nM.

Turning to `Cc1cc(-c2[nH]c3ccc(C4CCN(Cc5ccncc5)CC4)cc3c2C(C)C)cc(C)n1` [Example 435, 2-(2,6-dimethylpyridin-4-yl)-3-isopropyl-5-(1-(pyridin-4-ylmethyl)piperidin-4-yl)-1H-indole], the IC50 was 4.2 nM in experiment [1] (setting [4]), 609 nM in experiment [2] (setting [5]) and 9.1 nM in experiment [3] (setting [6]).

For `Cc1cc(-c2[nH]c3ccc(C4CCN(C5CCOC6CCCC65)CC4)cc3c2C(C)C)cc(C)n1` (stereo not drawn) [Example 458, 2-(2,6-dimethylpyridin-4-yl)-3-isopropyl-5-(1-(octahydrocyclopenta[b]pyran-4-yl)piperidin-4-yl)-1H-indole], the IC50 in experiment [1] (setting [4]) was 21.3 nM; in experiment [2] (setting [5]) it was 534 nM; in experiment [3] (setting [6]) it was 16.6 nM.

`CCc1c(-c2ccnc(C)c2)[nH]c2ccc(C3CCN(C(=O)C4CCCNC4)CC3)cc12` (stereo not drawn) [Example 624, (4-(3-ethyl-2-(2-methylpyridin-4-yl)-1H-indol-5-yl)piperidin-1-yl)(piperidin-3-yl)methanone]: the IC50 in experiment [1] (setting [4]) came out at 44.1 nM; in experiment [2] (setting [5]) it was 311 nM; in experiment [3] (setting [6]), 128 nM.

For the compound `Cc1cc(-c2[nH]c3ccc(C4CCN(CC(=O)N(CCO)Cc5ccccc5)CC4)cc3c2C(C)C)cc(C)n1` [Example 293, N-benzyl-2-(4-(2-(2,6-dimethylpyridin-4-yl)-3-isopropyl-1H-indol-5-yl)piperidin-1-yl)-N-(2-hydroxyethyl)acetamide], the figures for the IC50 in experiment [1] (setting [4]), in experiment [2] (setting [5]) and in experiment [3] (setting [6]) were 72.2 nM, 711 nM and 22.8 nM, respectively.

Consider `Cc1cc(-c2[nH]c3ccc(C4CCN(C(=O)CN(C)CCO)CC4)cc3c2C(C)C)cc(C)n1` [Example 420, 1-(4-(2-(2,6-dimethylpyridin-4-yl)-3-isopropyl-1H-indol-5-yl)piperidin-1-yl)-2-((2-hydroxyethyl)(methyl)amino)ethan-1-one], for which the IC50 in experiment [1] (setting [4]) turned out to be 9.9 nM; in experiment [2] (setting [5]), 632 nM; in experiment [3] (setting [6]), 1.5 nM.

Regarding `Cc1cc(-c2[nH]c3ccc(C4CCN(C(=O)CC5CC(=O)NC(=O)N5)CC4)cc3c2C(C)C)cc(C)n1` (stereo not drawn) [Example 129, 6-(2-(4-(2-(2,6-dimethylpyridin-4-yl)-3-isopropyl-1H-indol-5-yl)piperidin-1-yl)-2-oxoethyl)dihydropyrimidine-2,4(1H,3H)-dione], the results for the IC50 in experiment [1] (setting [4]), in experiment [2] (setting [5]) and in experiment [3] (setting [6]) were 69.8 nM, 32300 nM and 18.1 nM, respectively.

In the case of `Cc1cc(-c2[nH]c3ccc(C4CCN(C(=O)C5(N)COC5)CC4)cc3c2C(C)C)ccn1` [Example 634, (3-aminooxetan-3-yl)(4-(3-isopropyl-2-(2-methylpyridin-4-yl)-1H-indol-5-yl)piperidin-1-yl)methanone], the IC50 in experiment [1] (setting [4]) is 223 nM; in experiment [2] (setting [5]), above 50000 nM; in experiment [3] (setting [6]), 73.5 nM.

For `Cc1cc(-c2[nH]c3ccc(C4CCN(CC(=O)N[C@H]5CC[C@H](O)CC5)CC4)cc3c2C(C)C)cc(C)n1` [Example 211, 2-(4-(2-(2,6-dimethylpyridin-4-yl)-3-isopropyl-1H-indol-5-yl)piperidin-1-yl)-N-((1r,4r)-4-hydroxycyclohexyl)acetamide], the IC50 in experiment [1] (setting [4]) stood at 4.2 nM; in experiment [2] (setting [5]) it was 245 nM; in experiment [3] (setting [6]) it was 1.1 nM.

As to `Cc1cc(-c2[nH]c3ccc(C4CCN(C5COC5)CC4)cc3c2C(C)C)c(C)cn1` [Example 722, 2-(2,5-dimethylpyridin-4-yl)-3-isopropyl-5-(1-(oxetan-3-yl)piperidin-4-yl)-1H-indole], the figures for the IC50 in experiment [1] (setting [4]), in experiment [2] (setting [5]) and in experiment [3] (setting [6]) were 6.3 nM, 5890 nM and 24.4 nM, respectively.

Take `Cc1cc(-c2[nH]c3ccc(C4CCN(C(=O)CNCC5CC5)CC4)cc3c2C(C)C)cc(C)n1` [Example 339, 2-((cyclopropylmethyl)amino)-1-(4-(2-(2,6-dimethylpyridin-4-yl)-3-isopropyl-1H-indol-5-yl)piperidin-1-yl)ethan-1-one]: the IC50 in experiment [1] (setting [4]) worked out at 13.3 nM; in experiment [2] (setting [5]), 869 nM; in experiment [3] (setting [6]), 2.8 nM.

These data come from patent US10660877B2 (BRISTOL-MYERS SQUIBB COMPANY, priority 2016, dated 2020).
